Data on 29 molecules can be found in patent US6576620B2, “Method of identifying partial adenosine A1 receptor agonists” (CV Therapeutics, Inc., priority 1999, dated 2003).

The test system of the first test is Adenosine A1 receptor. The test is described as follows: A1-agonist stimulated [35S]GTPγS binding to G proteins. The format is biochemical. Conditions: Table 1, compounds of Example 2; normalized to the full agonist CPA. As for the experimental part:
At the end of the incubation, each suspension was filtered and the retained radioactivity determined as described above.
In general terms: GTPγS is a poorly hydrolysed GTP analogue; its binding reports G protein activation.
Consider `CCCCNC(=S)OC[C@H]1O[C@@H](n2cnc3c(N[C@@H]4CCOC4)ncnc32)[C@H](O)[C@@H]1O` [Compound 48 of Example 2, 2-{6-[((3R)oxolan-3-yl)amino]purin-9-yl}(4S,2R,3R,5R)-5-{[(butylamino)thioxomethoxy]methyl}oxolane-3,4-diol], for which the GTPγS came out at 70%. Still for that read-out and setting: the value for `O[C@@H]1[C@H](O)[C@@H](CSC(=S)NC2CCCC2)O[C@H]1n1cnc2c(N[C@@H]3CCOC3)ncnc21` [Compound 75 of Example 2] was 91%; that for `CCOC(=O)CCNC(=O)OC[C@H]1O[C@@H](n2cnc3c(N[C@@H]4CCOC4)ncnc32)[C@H](O)[C@@H]1O` [Compound 42 of Example 2, Ethyl 3-{[(5-{6-[((3R)oxolan-3-yl)amino]purin-9-yl}(3S, 2R,4R,5R)-3,4-dihydroxyoxolane-2-yl)methoxy}carbonylamino}propanoate] was 47%; that for `CNC(=S)SC[C@H]1O[C@@H](n2cnc3c(N[C@@H]4CCOC4)ncnc32)[C@H](O)[C@@H]1O` [Compound 74 of Example 2, 2-{6-[((3R)oxolan-3-yl)amino]purin-9-yl}(4S,5S,2R,3R)-5-{[(methylamino)thioxomethylthio]methyl}oxolane-3,4-diol] was 95%. `O[C@@H]1[C@H](O)[C@@H](CNC(=S)NC2CCCC2)O[C@H]1n1cnc2c(N[C@@H]3CCOC3)ncnc21` [Compound 78 of Example 2, 2-{6-[((3R)oxolan-3-yl)amino]purin-9-yl}(4S,2R,3R,5R)-5-({[(cyclopentylamino)thioxomethyl]amino}methyl)oxolane-3,4-diol]: the GTPγS is recorded as 95%. The same measure, in the same setting: the value for `O[C@@H]1[C@H](O)[C@@H](COC(=S)NC2CCC2)O[C@H]1n1cnc2c(NC3CCOC3)ncnc21` (stereo partly drawn) [Compound 58 of Example 2, 2-{6-[((3)oxolan-3-yl)amino]purin-9-yl}(4S,2R,3R,5R)-5{[(cyclobutylamino)thioxomethoxy]methyl}oxolane-3,4-diol] was 79%; that for `CCOC(=O)[C@H]1C2C=CC(C2)[C@H]1NC(=O)OC[C@H]1O[C@@H](n2cnc3c(N[C@@H]4CCOC4)ncnc32)[C@H](O)[C@@H]1O` (some centres unmarked) [Compound 35 of Example 2] was 52%. The same measure, in the same setting: the value for `C=CCNC(=O)OC[C@H]1O[C@@H](n2cnc3c(N[C@@H]4CCOC4)ncnc32)[C@H](O)[C@@H]1O` [Compound 41 of Example 2, [(5-{6-[((3R)oxolan-3-yl)amino]purin-9-yl}(3S,2R,4R,5R)-3,4-dihydroxyoxolan-2-yl)methoxy]-N-prop-2-enylcarboxamide] was 48%; that for `O[C@@H]1[C@H](O)[C@@H](COC(=S)N2CCCCC2)O[C@H]1n1cnc2c(N[C@@H]3CCOC3)ncnc21` [Compound 50 of Example 2, 2-{6-[((3R)oxolan-3-yl)amino]purin-9-yl}(4S,2R,3R,5R)-5-[(piperidylthioxomethoxy)methyl]oxolane-3,4-diol] was 88%. The same measure, in the same setting: the value for `O=C(O)CCNC(=O)OC[C@H]1O[C@@H](n2cnc3c(N[C@@H]4CCOC4)ncnc32)[C@H](O)[C@@H]1O` [Compound 67 of Example 2, 3-{[(5-{6-[((3R)oxolan-3-yl)amino]purin-9-yl}(3S,2R,4R,5R)-3,4 dihydroxyoxolan-2-yl)methoxy]carbonylamino}propanoic acid] was 59%; that for `O[C@@H]1[C@H](O)[C@@H](COC(=S)N[C@@H]2CCC[C@H]2OCc2ccccc2)O[C@H]1n1cnc2c(N[C@@H]3CCOC3)ncnc21` [Compound 57 of Example 2, 2-{6-[((3R)oxolan-3-yl)amino]purin-9-yl}(4S,2R,3R,5R)-5-[(([(1R,2R)-2-(phenylmethoxy)cyclopentyl]amino}thioxomethoxy)methyl]oxolane-3,4-diol] was 67%. As to `O=C(NC1CCC1)OC[C@H]1O[C@@H](n2cnc3c(N[C@@H]4CCOC4)ncnc32)[C@H](O)[C@@H]1O` [Compound 39 of Example 2, [(5-{6-[((3R)oxolan-3-yl)amino}purin-9-yl}(3S,2R,4R,5R)-3,4-dihydroxyoxolan-2-yl)methoxy]-N-cyclobutylcarboxamide], the GTPγS was determined as 67%. The same measure, in the same setting: the figure for “2-{6-[((3R)oxolan-3-yl)amino]purin-9-yl}(4S,2R,3R,5R)-5-{[cyclopentyloxythioxomethyl)amino]methyl}oxolane-3,4-diol [Compound 72 of Example 2]” is 93%; for `O=C(N[C@H]1CCC[C@@H]1O)OC[C@H]1O[C@@H](n2cnc3c(N[C@@H]4CCOC4)ncnc32)[C@H](O)[C@@H]1O` [Compound 61 of Example 2] it is 59%.

Molecule `O[C@@H]1[C@H](O)[C@@H](COC(=S)NC2CCCCC2)O[C@H]1n1cnc2c(N[C@@H]3CCOC3)ncnc21` [Compound 55 of Example 2, 2-{6-[((3R)oxolan-3-yl)amino]purin-9-yl}(4S,2R,3R,5R)-5-({[cyclohexylamino]thioxomethoxy}methyl)oxolane-3,4-diol] came in with a GTPγS of 82%. On the same count and under the same terms, the figure for `O=C(NC1CCCC1)SC[C@H]1O[C@@H](n2cnc3c(N[C@@H]4CCOC4)ncnc32)[C@H](O)[C@@H]1O` [Compound 73 of Example 2, [(5-{6-[((3R)oxolan-3-yl)amino]purin-9-yl}(2S,3S,4R,5R)-3,4-dihydroxyoxolan-2-yl)methythio]-N-cyclopentylcarboxamide] is 109%; for `O[C@@H]1[C@H](O)[C@@H](COC(=S)N2CCCC2)O[C@H]1n1cnc2c(N[C@@H]3CCOC3)ncnc21` [Compound 52 of Example 2, 2-{6-[((3R)oxolan-3-yl)amino]purin-9-yl}(4S,2R,3R,5R)-5-[(pyrrolidinylthioxomethoxy)methyl]oxolane-3,4-diol] it is 77%; for `O=C(O)CNC(=O)OC[C@H]1O[C@@H](n2cnc3c(N[C@@H]4CCOC4)ncnc32)[C@H](O)[C@@H]1O` [Compound 68 of Example 2, 2-{[(5-{6-[((3R)oxolan-3-yl)amino]purin-9-yl}(3S,2R,4R,5R)-3,4 dihydroxyoxolan-2-yl)methoxy]carbonylamino}acetic acid] it is 76%. “N-[(5-{6-[((3R)oxolan-3-yl)amino]purin-9-yl}(3S,2R,4R,5R)-3,4-dihydroxyoxolan-2-yl)methy]cyclopentyloxycarboxamide [Compound 70 of Example 2]” registered a GTPγS of 76%. Molecule `O[C@@H]1[C@H](O)[C@@H](COC(=S)NCc2ccccc2)O[C@H]1n1cnc2c(N[C@@H]3CCOC3)ncnc21` [Compound 54 of Example 2, 2-{6-[((3R)oxolan-3-yl)amino]purin-9-yl}(4S,2R,3R,5R)-5-({[benzylamino]thioxomethoxy}methyl)oxolane-3,4-diol] came in with a GTPγS of 93%.

`O[C@@H]1[C@H](O)[C@@H](COC(=S)N[C@H]2CCC[C@@H]2O)O[C@H]1n1cnc2c(N[C@@H]3CCOC3)ncnc21` [Compound 64 of Example 2, 2-{6-[((3R)oxolan-3-yl)amino]purin-9-yl}(4S,2R,3R,5R)-5-({[((1S,2S)-2-hydroxycyclopentyl)amino]thioxomethoxy}methyl)oxolane-3,4-diol]: the GTPγS amounted to 99%. Same read-out and setting: the value for `O=c1occn1C[C@H]1OC(n2cnc3c(N[C@@H]4CCOC4)ncnc32)[C@H](O)[C@@H]1O` (stereo partly drawn) [Compound 80 of Example 2, 3-[(5-{6-[((3R)oxolan-3-yl)amino]purin-9-yl}(3S,2R,4R)-3,4-dihydroxyoxolan-2-yl)methyl]-1,3-oxazolin-2-one] was 80%; that for `O[C@@H]1[C@H](O)[C@@H](COC(=S)N[C@H]2CCC[C@@H]2OCc2ccccc2)O[C@H]1n1cnc2c(N[C@@H]3CCOC3)ncnc21` [Compound 56 of Example 2, 2-{6-[((3R)oxolan-3-yl)amino]purin-9-yl}(4S,2R,3R,5R)-5-[({[(1S,2S)-2-(phenylmethoxy)cyclopentyl]amino}thioxomethoxy)methyl]oxolane-3,4-diol] was 52%. Same read-out and setting: the value for `C=CCNC(=S)OC[C@H]1O[C@@H](n2cnc3c(N[C@@H]4CCOC4)ncnc32)[C@H](O)[C@@H]1O` [Compound 60 of Example 2, 2-{6-[((3R)oxolan-3-yl)amino]purin-9-yl}(4S,2R,3R,5R)-5-{[(prop-2-enylamino)thioxomethoxy]methyl}oxolane-3,4-diol] was 77%; that for `O=C(N[C@H]1CCC[C@@H]1OCc1ccccc1)OC[C@H]1O[C@@H](n2cnc3c(N[C@@H]4CCOC4)ncnc32)[C@H](O)[C@@H]1O` [Compound 38 of Example 2, {(5-{6[((3R)oxolan-3-yl)amino]purin-9-yl}(3S,2R,4R,5R)-3,4-dihydroxyoxolan-2-yl)methoxy]-N-[(1 S,2S)-2-(phenylmethoxy)cyclopentyl]carboxamide] was 1%; that for `CC(C)NC(=O)OC[C@H]1O[C@@H](n2cnc3c(N[C@@H]4CCOC4)ncnc32)[C@H](O)[C@@H]1O` [Compound 32 of Example 2, {(5-{6-[((3R)oxolan-3-yl)amino]purin-9-yl}(3S,2R,4R,5R)-3,4-dihydroxyoxolan-2-yl)methoxy]-N-(methylethyl)carboxamide] was 91%. The same measure, in the same setting: the figure for `O=C(NC1CCCC1C(=O)O)OC[C@H]1O[C@@H](n2cnc3c(N[C@@H]4CCOC4)ncnc32)[C@H](O)[C@@H]1O` (some centres unmarked) [Compound 65 of Example 2] is 81%.

The test is the same for the next values; noted with them: Table 2, compounds of Example 3; normalized to the full agonist CPA.
The molecule `CCNc1nc2c(N[C@@H]3CCOC3)ncnc2n1[C@@H]1O[C@H](CO)[C@@H](O)[C@H]1O` [Compound 5 of Example 3, 2-{6-[((3R)oxolan-3-yl)amino]-8-(ethylamino)purin-9-yl}(4S,2R,3R,5R)-5-(hydroxymethyl)oxolane-3,4-diol] registered a GTPγS of 89%.

The same test, now with this note: Table 3, compounds of Example 4; normalized to the full agonist CPA.
`COc1ccccc1SC[C@H]1O[C@@H](n2cnc3c(N[C@@H]4CCOC4)ncnc32)[C@H](O)[C@@H]1O` [Compound 17 of Example 4, 2-{6-[((3R)oxolan-3-yl)amino]purin-9-yl}(4S,5S,2R,3R)-5-[(2-Methoxyphenylthio)methyl]oxolane-3,4-diol] yielded a GTPγS of 52%.
